According to ChEMBL document CHEMBL6127052, “Discovery of membrane-targeting amphiphilic honokiol derivatives containing an oxazolethione moiety to combat methicillin-resistant Staphylococcus aureus (MRSA) infections” (Eur J Med Chem, 2024):
Activity calls are given as the source filed them. The rule behind the calls is not given here.

Tests used:
[1] = system: Staphylococcus aureus; test: Antibacterial activity against methicillin-resistant Staphylococcus aureus clinical isolate M12 infected in sepsis BALB/c mouse model assessed as decrease in pathological change in red medulla of spleen at 12 mg/kg, ip administered consecutively at 12 hr-interval for 24 hrs measured after 24 hrs post-last dose by H and E staining based analysis; format: functional, organism-based; settings: time 48.0 hrs
[2] = system: Staphylococcus aureus; test: Induction of membrane permeability in methicillin-resistant Staphylococcus aureus clinical isolate M12 at 8 to 32 times MIC measured for 15 mins by SYTOX Green dye based analysis; format: functional, organism-based
[3] = Toxicity in BALB/c mouse assessed as change in blood routine index at 15 mg/kg, ip bid for 7 days; format: organism-based; settings: in vivo, 168 h, time 7 day
[4] = system: Staphylococcus aureus; test: Antibacterial activity against methicillin-resistant Staphylococcus aureus clinical isolate M12 infected in sepsis BALB/c mouse model assessed as decrease in bacterial load in spleen at 12 mg/kg, ip administered consecutively at 12 hr-interval for 24 hrs measured after 24 hrs post-last dose; format: functional; settings: time 48 hrs
[5] = system: Staphylococcus aureus; test: Antibacterial activity against methicillin-resistant Staphylococcus aureus clinical isolate M12 infected in KM mouse assessed as decrease in neutrophils at subcutaneous tissues at 5 to 10 mg/kg, sc measured after 24 hrs; format: functional, organism-based; settings: dose 5-10 mg/kg
[6] = Toxicity in KM mouse assessed as animal survival at 5 to 80 mg/kg, sc; format: organism-based; settings: in vivo, dose 5-80 mg/kg
[7] = Toxicity in KM mouse assessed as degeneration of lung epithelial cells at 20 mg/kg, sc measured after 24 hrs by H and E staining based analysis; format: organism-based; settings: in vivo
[8] = Toxicity in KM mouse assessed as edema in renal tubular epithelial cells at 20 mg/kg, sc measured after 24 hrs by H and E staining based analysis; format: organism-based; settings: in vivo
[9] = Toxicity in sepsis BALB/c mouse model infected with methicillin-resistant Staphylococcus aureus clinical isolate M12 assessed as survival rate at 6 mg/kg, ip administered consecutively at 12 hr-interval for 7 days measured after 24 hrs post-last dose; format: organism-based; settings: in vivo, 192 h, time 8 day
[10] = Toxicity in KM mouse assessed as necrosis in hepatocytes at 20 mg/kg, sc measured after 24 hrs by H and E staining based analysis; format: organism-based; settings: in vivo
[11] = system: Staphylococcus aureus; test: Antibacterial activity against methicillin-resistant Staphylococcus aureus clinical isolate M12 infected in KM mouse assessed as decrease in bacterial load in skin tissues at 5 mg/kg, sc measured after 24 hrs by drop-plate counting method (reference value: 6.7); format: functional
[12] = Toxicity in BALB/c mouse assessed as knotted hair at 40 mg/kg, ip bid for 7 days; format: organism-based; settings: in vivo, 168 h, time 7 day
[13] = Toxicity in BALB/c mouse assessed as necrosis in renal tubular epithelial cells at 15 mg/kg, ip bid for 7 days; format: organism-based; settings: in vivo, 168 h, time 7 day
[14] = system: Staphylococcus aureus; test: Induction of membrane depolarization in methicillin-resistant Staphylococcus aureus clinical isolate M12 at 32 times MIC measured for 10 mins by DiSC3(5) dye based analysis; format: functional, organism-based
[15] = system: Staphylococcus aureus; test: Antibacterial activity against methicillin-resistant Staphylococcus aureus clinical isolate M12 infected in KM mouse assessed as reduction in TNF-alpha level at infection site at 10 mg/kg, sc measured after 24 hrs by ELISA; format: functional
[16] = Toxicity in BALB/c mouse assessed as degeneration of hepatocytes at 15 mg/kg, ip bid for 7 days; format: organism-based; settings: in vivo, 168 h, time 7 day
[17] = system: Staphylococcus aureus; test: Antibacterial activity against methicillin-resistant Staphylococcus aureus clinical isolate M12 infected in KM mouse assessed as reduction in IL-6 level at infection site at 5 mg/kg, sc measured after 24 hrs by ELISA; format: functional
[18] = Toxicity in BALB/c mouse assessed as inflammatory cell infiltration in renal tubular epithelial cells at 15 mg/kg, ip bid for 7 days; format: organism-based; settings: in vivo, 168 h, time 7 day
[19] = Toxicity in BALB/c mouse assessed as pathological change in red medulla of spleen at 15 mg/kg, ip bid for 7 days; format: organism-based; settings: in vivo, 168 h, time 7 day
[20] = Toxicity in KM mouse assessed as pathological change in spleen at 20 mg/kg, sc measured after 24 hrs by H and E staining based analysis; format: organism-based; settings: in vivo
[21] = Toxicity in KM mouse infected with methicillin-resistant Staphylococcus aureus clinical isolate M12 assessed as histopathological abnormality in kidney at 5 to 10 mg/kg, sc measured after 24 hrs by H and E staining based analysis; format: organism-based; settings: in vivo, dose 5-10 mg/kg
[22] = system: Staphylococcus aureus; test: (§1) Antibacterial activity against methicillin-resistant Staphylococcus aureus clinical isolate M12 infected in sepsis BALB/c mouse model assessed as decrease in deformation of hepatocytes at 6 mg/kg, ip administered consecutively at 12 hr-interval for 24 hrs measured after 24 hrs post-last dose by H and E staining based analysis; format: functional, organism-based; settings: time 48.0 hrs
[23] = Toxicity in BALB/c mouse assessed as animal death at 40 mg/kg, ip bid for 7 days; format: organism-based; settings: in vivo, 168 h, time 7 day
[24] = Toxicity in KM mouse assessed as adverse effect at 20 mg/kg, sc; format: organism-based; settings: in vivo
[25] = Toxicity in KM mouse assessed as edema in cardiac muscle fibers at 20 mg/kg, sc measured after 24 hrs by H and E staining based analysis; format: organism-based; settings: in vivo
[26] = system: Staphylococcus aureus; test: as §1, with “necrosis in renal tubular epithelial cells” for “deformation of hepatocytes”, “6 to 12” for “6”; format: functional, organism-based; settings: dose 6-12 mg/kg, time 48.0 hrs
[27] = system: Staphylococcus aureus; test: Antibacterial activity against methicillin-resistant Staphylococcus aureus clinical isolate M13 by CLSI based micro-broth dilution method; format: functional

With C=CCc1cc(-c2ccc(OCCC[N+](C)(C)CC(=O)NCCCC)c(CC=C)c2)c2oc(=S)n(Cc3ccc(F)cc3)c2c1.[Br-] the Activity [1] was “Active”, the Activity [2] was “Active” and the Activity [3] was “Non-Toxic”. For the same compound, the Activity [4] was 1.67 log10CFU/g, the Activity [5] was “Active” and the Activity [6] was “Non-Toxic”. The Activity [7] was “Non-Toxic”, the Activity [8] was “Non-Toxic” and the Survival [9] was 16.7%. For the same compound, the Activity [10] was “Non-Toxic”, the Activity [11] was 1.4 log10CFU/g and the Activity [12] was “Toxic”. For the same compound, the Activity [13] was “Non-Toxic”, the Activity [14] was “Active” and the Activity [15] was 102.6 pg/mL. For the same compound, the Activity [16] was “Non-Toxic”, the Activity [17] was 65.6 pg/mL and the Activity [18] was “Non-Toxic”. For the same compound, the Activity [19] was “Non-Toxic”, the Activity [20] was “Non-Toxic” and the Activity [21] was “Non-Toxic”. For the same compound, the Activity [22] was “inactive”, the Activity [23] was “Toxic” and the Activity [24] was “Non-Toxic”. The Activity [25] was “Non-Toxic”, the Activity [26] was “Active” and the MIC [27] was 4 µg/mL.
